From patent US20260125426A1, “CYCLIC CELL-PENETRATING PEPTIDES AND USES THEREOF” (Ohio State Innovation Foundation, priority 2022, published 2026)
Where “and” joins values, the source holds several entries; their conditions need not be identical. Identical values can stand only once.

Experiments:
[1] = tested on: intracellular Keap1-Nrf2 interaction; assay: ARE reporter-HepG2 luciferase assay of CPP/BCP-K1 conjugates; type: cell-based; settings: ARE-Reporter HepG2 cells, 10 μM peptide, 18 h
Protocol: Cytosolic Delivery of Peptidyl Cargo. […] An important role of Nrf2-ARE pathway in the cellular defense mechanism. Journal of biochemistry and molecular biology, 37(2), 139-1438). Under basal conditions, Nrf2 interacts with Keap1 and is retained in the cytosol or degraded by the proteasome. However, upon blocking the Keap1-Nrf2 interaction, Nrf2 accumulates and translocates into the nucleus, inducing the expression of luciferase.
One hundred μL of ARE-Reporter Hep G2 cells were seeded in a 96-well plate at 5000 cells/well in minimum essential media supplemented with 10% FBS and 1% penicillin/streptomycin. The following day, 10 μL of peptide of various concentrations was added to the cells to give final concentrations of 0.625-10 μM. Cells treated with DMSO were used as a control. After 18 h, the cells were treated with an equal volume (110 μL) of BPS bioscience ONE-Step luciferase assay solution and shaken for 30 min. The luminescent signal was measured on a Tecan Infinite Pro plate reader.

[2] = biological target: Keap1 (Homo sapiens, UniProt Q14145); settings: read-out: KD for Keap1; cited from earlier work
[3] = tested on: HEK293T cells; assay: Cytotoxicity, Promega CellTiter-Glo 2.0 assay, HEK293T; type: cell-based; settings: 72 h, read-out: IC50 (concentration at which 50% of cells are nonviable)
Protocol: (§1) Cytotoxicity of BCPs. The cytotoxicity of pBCP427-4 and BCP16 was tested 20) against HeLa and HEK293T cell lines by using Promega's Cell-Glo assay. The cells were seeded in a 96-well plate (5000 cells/well) in 100 μL of DMEM supplemented with 10% FBS and 1% penicillin/streptomycin. The following day. 10 μL of peptide of various concentrations was added to the cells. A row of wells was treated with DMSO as a control. After 72 h, all wells were treated with an equal volume (110 μL) of Promega CellTiter-Glo 2.0 assay solution and shaken for 30 min. Luminescent signal was measured on a Tecan Infinite Pro plate reader.

[4] = tested on: HeLa cells; assay: Live-cell confocal microscopy of HeLa cells; type: cell-based
Protocol: Confocal microscopy. HeLa cells (5×10^5 cells/mL in 300 μL volume) were cultured overnight in DMEM (10% FBS, 1% antibiotic solution) in a Grenier Bio-One 35/10 mm glass-bottomed microwell dish with four compartments. The following day, cells were incubated with 5 μM fluorescently labeled peptide for 2 h in phenol-red free DMEM (1% FBS, 1% antibiotic solution) and washed with warm media prior to imaging. Cells were imaged on a Nikon A1R live-cell confocal laser scanning microscope (ECLIPSE Ti-E automated, inverted) equipped with a 100× oil objective (1.45 N.A.) and a heated chamber (37° C.) supplied with 5% CO2. TMR-labeled peptides were imaged by excitation with a λEx of 561 nm. Differential interference contrast (DIC) images were obtained to validate the morphology of cells.
The cellular entry of BCP1-3 was further confirmed by live-cell confocal microscopy. HeLa cells were incubated with 5 μM TMR-labeled peptide for 2 h in the presence of 1% FBS in media. The cells were washed twice with fresh media and imaged without fixation.
To assess cellular delivery by confocal microscopy, HeLa cells were cultured overnight in a 4-well, 35-mm glass bottom microscope dish at a density of 50,000 cells/mL (300 μL per well). The following day, the cells were washed twice with DPBS and incubated with 5 μM protein for 4 h in phenol red free DMEM with 1% FBS. […]

[5] = tested on: HeLa cells; assay: Cytotoxicity, Promega CellTiter-Glo 2.0 assay, HeLa; type: cell-based; settings: 72 h, read-out: IC50 (concentration at which 50% of cells are nonviable)
Protocol: as §1

[6] = tested on: HeLa cells; assay: Flow cytometry of HeLa cells, cytosolic entry of NF-labeled peptides; type: cell-based; settings: for MFI^NF (Cytosolic Entry): 1% FBS, relative to CPP12 (100%)
Protocol: Flow cytometry. HeLa cells were cultured in 12-well plates (1.5×10^5 cells/well) overnight. The following day, cells were incubated with 5 μM fluorescently labeled peptide for 2 h in DMEM supplemented with 1% FBS and 1% antibiotic solution. DMSO was used as a negative control. After incubation, cells were detached from plate with 350 μL of 0.25% Trypsin-EDTA solution, diluted with Dulbecco's phosphate buffered saline (DPBS), and pelleted at 300 g for 5 min. Cells were washed twice with DPBS, resuspended in DPBS, and analyzed on a BD FACS LSR II flow cytometer.
To evaluate their cell entry efficiencies, the BCPs and pBCPs were labeled with tetramethylrhodamine (TMR) or naphthofluorescein (NF) on a C-terminal lysine residue (FIGS. 2A, 2B, and 4). […] The labeled peptides were purified again by reversed-phase HPLC and their authenticity was confirmed by high-resolution mass spectrometry.
HeLa cells were treated with 5 μM dye-labeled BCPs (or pBCPs), CPP12, Tat, or DMSO (equal volume) for 2 h at 37° C., washed to remove any peptides in the medium, and analyzed by flow cytometry. The mean fluorescence intensity (MFI) value of TMR (which is pH insensitive) reflects the total amount of CPP inside the HeLa cells (total cellular uptake). On the other hand, NF is a pH sensitive dye, having an apparent pKa of 7.8. NF is unprotonated and fluorescent inside the neutral environment of the cytosol (and nucleus) but is nearly completely protonated and nonfluorescent in the acidic environments of endosomes and lysosomes. Thus, the MFI value of NF provides a convenient estimate of the peptides that have reached the cytosol.
Note that cell entry assays were performed by treating HeLa cell with 2 μM naphthofluorescein (NF)-labeled peptide for 2 h at 37° C. Under this condition, the BCPs enter the cell almost exclusively by endocytosis and endosomal escape. A small fraction of the CPP12^NF-treated cells (˜10%) underwent direct translocation of CPP12^NF; this fraction of highly fluorescent cells was not included in the data analysis. The cellular entry of pBCP427-4 was confirmed by live-cell confocal microscopy (FIG. 6).
BCP16a, BCP16b, and pBCP427-4a were labeled with NF and their cytosolic entry efficiencies were assessed by flow cytometry analysis of HeLa cells after treatment with 2 μM peptide at 37° C. for 2 h. […] CPP12 was previously shown to be highly sensitive to serum proteins (Buyanova, M., et al., (2022). Discovery of a Cyclic Cell-Penetrating Peptide with Improved Endosomal Escape and Cytosolic Delivery Efficiency. Molecular pharmaceuties, 19 (5). 1378-1388).

[7] = tested on: NIH 3T3 cells; assay: Confocal microscopy of NIH 3T3 cells; type: cell-based; settings: 2 μM peptide, 37° C., 2 h
Protocol: The cytosolic entry efficiencies of CPP12, BCP16a, BCP16b, and pBCP427-4a were also assessed by confocal microscopy of NIH 3T3 cells after treatment with 2 μM peptide at 37° C. for 2 h.

[8] = Proteolytic stability in 25% human serum (UPLC-MS); type: in vitro ADME; settings: 100 μM peptide, 25% human serum in PBS, 37° C.; read-out: Serum t1/2
Protocol: Proteolytic Stability of BCP4, BCP16, and pBCP427-4. BCPs (100 μM) were incubated in 25% human serum diluted in phosphate-buffered saline for 24 h at 37° C. One hundred-μL aliquots were withdrawn from the mixture at various time points and mixed with 200 μL of 1:1 (v/v) 15% trichloroacetic acid in methanol and acetonitrile. The samples were centrifuged for 5 min in a microcentrifuge and stored at 4° C. until analysis by UPLC-MS equipped with a C-18 column. The column was eluted with a linear gradient of 5-100% acetonitrile in water containing 0.1% TFA over 7.5 min and the eluant was monitored at 214 nm. The area underneath the peak for any remaining BCP was integrated and compared to that at time 0 and the percentage of remaining BCP was plotted as a function of the incubation time. When integration of the UV absorbance was not possible due to overlapping of the peptide signal with that of serum proteins, the signal abundance from the mass spectrum was used to estimate the % peptide remaining.
Proteolytic Stability of pBCP427-4 and pBCP427-4Ala. BCPs (100 μM) were incubated in 25% human serum diluted in phosphate-buffered saline for 24 h at 37° C. […] The column was eluted with a linear gradient of 5-100% acetonitrile in water containing 0.1% TFA over 7.5 min and the eluant was monitored at 214 nm.

[9] = 2 μM NF-labeled peptide, 2 h, 37° C.

Chain of Keap1 (Q14145 whole entry, species assumed): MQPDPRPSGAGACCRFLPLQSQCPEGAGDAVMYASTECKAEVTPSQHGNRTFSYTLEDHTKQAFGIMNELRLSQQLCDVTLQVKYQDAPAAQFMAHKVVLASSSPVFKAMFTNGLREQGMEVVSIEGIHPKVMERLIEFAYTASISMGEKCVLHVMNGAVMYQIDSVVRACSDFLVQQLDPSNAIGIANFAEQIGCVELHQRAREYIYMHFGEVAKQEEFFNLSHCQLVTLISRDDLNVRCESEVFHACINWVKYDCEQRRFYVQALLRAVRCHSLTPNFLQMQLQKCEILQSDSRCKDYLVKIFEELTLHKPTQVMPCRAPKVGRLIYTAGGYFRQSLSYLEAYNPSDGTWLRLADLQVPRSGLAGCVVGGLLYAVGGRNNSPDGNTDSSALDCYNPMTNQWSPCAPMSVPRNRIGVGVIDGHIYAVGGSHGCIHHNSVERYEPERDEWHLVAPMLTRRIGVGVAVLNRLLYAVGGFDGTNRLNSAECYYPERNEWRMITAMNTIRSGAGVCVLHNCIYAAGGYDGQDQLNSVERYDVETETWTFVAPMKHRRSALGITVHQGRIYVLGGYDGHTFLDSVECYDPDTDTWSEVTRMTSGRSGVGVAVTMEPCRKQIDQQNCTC

Compound: cyclo(GQLDPETGEFL [K1]
- induction of luminescence signal [1]: did not
- Kd [2]: 0.018 µM

Compound: CWSNWFCFQRRC [pBCP427-4]
- IC50 [3]: 16 µM
- cellular entry seen by live-cell confocal microscopy ([4]; 2 or 5 μM TMR-labeled peptide, 2 h, 37° C.): confirmed
- IC50 [5]: > 50 µM
- MFI^NF (Cytosolic Entry) [6, 9]: 189% and 189 ± 6%
- improvement of cytosolic entry efficiency by bismuth cyclization ([6]; 2 μM, pBCP427-4 vs pBCP427-4Ala): ~10 fold

Compound: HS-CH2-CO-rRrRCΦ(Bta)φC [BCP16]
- IC50 [3]: 14 µM
- IC50 [5]: 49 µM

Compound: Ac-cwsnwfcfqrrc [pBCP427-4a]
- cytosolic entry by fluorescence intensity, compared with CPP12 [7]: less active than CPP12
- MFI^NF (Cytosolic Entry) [6, 9]: 33% and 33 ± 1%
- cytosolic entry efficiency in the presence of 10% FBS ([6]; 2 μM NF-labeled peptide, 2 h, 37° C., 10% FBS, relative to CPP12): 85%

Compound: CC(=O)N[C@@H](Cc1ccc(O)cc1)C(=O)NCC(=O)N[C@@H](CCCNC(=N)N)C(=O)N[C@@H](CCCCN)C(=O)N[C@@H](CCCCN)C(=O)N[C@@H](CCCNC(=N)N)C(=O)N[C@@H](CCCNC(=N)N)C(=O)N[C@@H](CCC(N)=O)C(=O)N[C@@H](CCCNC(=N)N)C(=O)N[C@@H](CCCNC(=N)N)C(=O)N[C@@H](CCCNC(=N)N)C(=O)NCCOCCOCC(=O)N[C@@H](CCCCNC(=O)c1ccc2c(c1)C(=O)OC21c2ccc3cc(O)ccc3c2Oc2c1ccc1cc(O)ccc21)C(N)=O [Tat]
- half-life at 100 μM [8]: < 30 min

Compound: pBCP427-4-SEP: fusion protein of pBCP427-4 at the N-terminus of superecliptic-pHluorin (SEQ ID NO: 89) (MGSSGSSCWSNWFCFQRRC)
- GFP fluorescence inside the cell (protein delivery) ([4]; 5 μM protein, 4 h, 1% FBS): intense GFP fluorescence inside the cell
